pEC50, pIC50: −log10 of the molar value. “And” between values parts separate entries of the source, which are not always exact repeats. Identical values can stand only once. The source made the active and inactive calls.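 How the source made its calls: active means compounds giving half or more protection of infected cells from virus-caused growth loss, again on retest; inactive means the rest.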 Where a SMILES comes first, the peptide text is derived from it. The star is where a group is joined. ONb = O=[N+]([O-])c1ccc(CO*)cc1; Boc = CC(C)(C)OC(=O)*
Test system: CEM cells HIV-1 protection, formazan growth assay
Assay: NCI AIDS Antiviral Assay
Conditions: for pIC50: measured here: growth of uninfected CEM cells
In short: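 Steps: treat uninfected and HIV-1-infected human CEM cells at five drug levels; quantify growth by soluble formazan; retest any compound reaching 50% protection; classify actives from the retest.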

Row | Structure (SMILES) | pEC50 | pIC50 | outcome
1 | Cc1cccc2c1Sc1ccccc1C2NC(=O)CCN(C)C (configuration not stated) | < 3.26 | 4.50 | 
2 | Cc1cc(Cl)ccc1NC(=O)C(=O)C(C(=O)c1ccc2ccccc2c1)C1OC(=O)c2ccccc21 (configuration not stated) | < 4.28 | 4.60 | 
3 | Nc1ncc(N)c(NCC2(CO)CC(CCc3ccccc3)C2)n1 (configuration not stated) | < 3.70 | 5.31 | 
4 | CCOC(=O)[C@@]12C[C@@H](C#N)C1N(Cc1ccccc1)[C@@H]1ON=C(c3ccc(Cl)cc3)[C@@H]1C2 (some centres not stated) |  |  | inactive
5 | CCOC(=O)c1c(NS(=O)(=O)c2ccc(Br)cc2)sc2c1CCCC2 |  |  | inactive
6 | Cc1cn(C(Cc2ccccc2)OCCN2C(=O)c3ccccc3C2=O)c(=O)[nH]c1=O (configuration not stated) | < 3.70 | < 3.70 | 
7 | COC(=O)CC12C=CC3(OO1)C(C)(C)CCCC3(C)O2 (configuration not stated) | < 3.70 | 3.76 | 
8 | COc1ccc(N=C2C(=Nc3ccc(OC)cc3)N(c3ccccc3)C(=S)N2N=C=C2Sc3ccccc3N2C)cc1 | < 3.70 | 4.59 | 
9 | CCOC(=O)/C(=C\c1cccc(C#N)c1)[Se]c1ccccc1 | < 4.28 | < 4.28 | 
10 | CC1(O)C(=O)N(Cc2ccccc2)c2ccccc21 (configuration not stated) | < 3.85 | < 3.85 | 
11 | CSc1cc(SC)ncn1 | < 2.84 | 2.99 | 
12 | O=C(O)C1CC2C3CC(C(=O)O)C(C3)C2C1 (configuration not stated) | < 3.70 | < 3.70 | 
13 | CN(C)CC(=O)N1CC(COS(C)(=O)=O)c2ccc(O)cc21 (configuration not stated) | < 4.70 | 5.46 | 
14 | BrN1C2c3ccccc3C1c1ccccc12 |  |  | inactive
15 | CCCCCCCCCCCCCCC(O)C[N+](C)(CCO)CCO (configuration not stated) | < 3.70 | 5.96 | 
16 | O=C(O)c1cc2cc(Br)ccc2cc1O | < 3.70 | 4.07 | 
17 | CCOC(=O)Cc1nc2sc(C)c(-c3ccccc3)c2c(=O)[nH]1 | < 3.96 | < 3.96 | 
18 | Cc1cn(C2CC(N=[N+]=[N-])C(COC(=O)CCCCCCCCCCCOc3ccccc3)O2)c(=O)[nH]c1=O (configuration not stated) | 7.30 | 3.99 | 
19 | CC1(Br)C(=O)NC(=O)N(C2C=CC(CO)O2)C1O (configuration not stated) | < 3.70 | < 3.70 | 
20 | COc1c(C(=O)CC2c3c(cc4oc(C)cc(=O)c4c3OC)OC(=N)C2c2nc3ccccc3[nH]2)c(O)c(OC)c2occc12 (configuration not stated) | 4.60 | 4.31 | 
21 | CC(C)=CCCC1(C)C=Cc2c(ccc3c(C)noc23)O1 (configuration not stated) | < 4.74 | < 4.74 | 
22 | COc1ccc(N2C(=O)C3c4[nH]c5ccccc5c4C4CC(C)CC(C)C4C3C2=O)cc1 (configuration not stated) | < 5.61 | < 5.61 | 

Row | Structure (SMILES) | pEC50 | pIC50 | outcome
23 | [N-]=[N+]=Nc1c([N+](=O)[O-])c(Cl)nc2ccccc12 | < 4.70 | 5.00 | 
24 | NC(=O)c1ccc(NCC2=CC(=O)C=CC2=O)cc1 | < 4.39 | 4.76 | 
25 | O=[N+]([O-])c1ccc(S(=O)(=O)NCCSSCCNS(=O)(=O)c2ccc([N+](=O)[O-])cc2)cc1 | < 3.70 | 4.98 | 
26 | CC(=O)N(C(C)=O)c1ccc(-c2cccs2)oc1=O | < 3.70 | < 3.70 | 
27 | Cc1cc(C2C(=O)c3ccccc3C2=O)cc(C)c1O |  |  | inactive
28 | O=C1CC2(CCC(O)(c3cccc4ccccc34)C(C(=O)c3cccc4ccccc34)C2)C(=O)c2ccccc2N1 (configuration not stated) | < 3.70 | 3.96 | 
29 | COc1cccc2c1OC1c3ccccc3OCC1(O)C2 (configuration not stated) |  |  | inactive
30 | CCC1(c2ccccc2)OCC(=O)NC1=O (configuration not stated) | < 3.70 | < 3.70 | 
31 | O=C(c1nc2cc([N+](=O)[O-])ccc2[nH]c1=O)C(O)c1ccco1 (configuration not stated) | < 3.70 | 4.21 | 
32 | COc1ccc2cc(C(C)C(O)c3cc(F)c(F)c(F)c3F)ccc2c1 (configuration not stated) | 3.90 | < 3.70 | 
33 | Brc1ccc(-c2cnc3nc4[nH]c5ccccc5c4nn23)cc1 | < 3.70 | 3.91 | 
34 | C/C=C1\Oc2ccc(OC)cc2S1(=O)=O | 4.77 | 4.50 | 
35 | CC(C)C(O)C(=O)C(O)C(C)C (configuration not stated) | < 2.99 | < 2.99 | 
36 | O=C(/C=C(\O)c1ccccc1)C(=O)NNc1ccc([N+](=O)[O-])cc1[N+](=O)[O-] | < 3.70 | 4.22 | 
37 | O=C(Nc1sccc1S(=O)(=O)c1ccc(Cl)cc1)C(F)(F)F | < 3.70 | 5.02 | 
38 | O=C(CCCCC[n+]1ccccc1)Sc1ccccc1C(=O)NCc1ccc2c(c1)OCO2 | < 4.46 | 5.27 | 
39 | CCN(CC)C1Oc2cc3c(cc2C(c2ccc(OC)cc2)C1C)OCO3 (configuration not stated) | < 3.70 | 4.62 | 
40 | CC1(C)OC(=O)C(C#N)=C1/C=C\c1ccco1 | < 2.96 | < 2.96 | 
41 | CCOC(=O)/C(=C\c1ccc(OC)cc1)C(C)=O | < 3.56 | 3.93 | 
42 | COc1nc(N=P(c2ccccc2)(c2ccccc2)c2ccccc2)cc(=O)[nH]1 |  |  | inactive
43 | Nc1nc(Cl)cc(OCC2(CO)CC2)n1 | < 3.70 | < 3.70 | 
44 | COc1ccc(/C(C)=C2\CCCN(Cc3ccccc3)C2)cc1 | < 3.70 | 4.51 | 

Row | Structure (SMILES) | pEC50 | pIC50 | outcome
45 | COc1cccc(N2C(=O)C3c4[nH]c5ccccc5c4C4CCCC4C3C2=O)c1 (configuration not stated) | < 3.70 | < 3.70 | 
46 | COC(=O)C(=O)Cc1nc2ccccc2s1 |  |  | inactive
47 | O=NCC(=O)OCc1ccccc1 | < 3.70 | < 3.70 | 
48 | CC(=O)N/N=C(/C)c1cccs1 | < 3.70 | < 3.70 | 
49 | O=C1c2ccccc2N(O)C1(c1ccccc1)C1CCCC=C1N1CCOCC1 (configuration not stated) |  |  | inactive
50 | CC(C)NC(=O)OCc1c(COC(=O)NC(C)C)c(-c2ccc(Cl)c(Cl)c2)n2c1CCC2 | < 5.13 | 5.35 | 
51 | CC(=O)Nc1ccc(/C(C#N)=C/c2ccc(N(C)CCC#N)cc2)cc1 | < 3.70 | 4.72 | 
52 | NC(=O)CCCC(NCc1c2ccccc2nc2ccccc12)C(=O)O (configuration not stated) |  |  | inactive
53 | Cn1cc(N)cc1C(=O)Nc1cc(C(=O)Nc2ccc3cc(S(=O)(=O)O)cc(S(=O)(=O)O)c3c2)n(C)c1 | 4.44 | 3.50 | 
54 | CSC[C@H](NC(=O)COc1cccc2cnccc12)C(=O)NC(Cc1ccccc1)C(O)C(=O)N1CSC[C@H]1C(=O)NC(C)(C)C (some centres not stated) | 7.29 | 5.00 | 
55 | COC(=O)N/N=C(\C)CC(=O)Nc1cccc([N+](=O)[O-])c1 | < 3.35 | < 3.35 | 
56 | COc1ccc(C2[C@@H](Cl)C(=O)N2c2ccc(OC)cc2)cc1 (some centres not stated) |  |  | inactive
57 | c1ccc(C2COC(c3ccc4c(c3)OCO4)O2)cc1 (configuration not stated) | < 3.70 | 3.79 | 
58 | O=C1C=C[C@@]23CC1C(O)C[C@H]2C=Cc1ccccc13 (some centres not stated) | < 3.99 | < 3.99 | 
59 | CCN(CC)CCOc1ccc(/C=C(\C#N)c2ccc(OCCN(CC)CC)cc2)cc1 | < 4.27 | 5.43 and 5.16 | 
60 | COC(=O)C1C2CC3C(OC(=O)C31)C2I (configuration not stated) |  |  | inactive
61 | CC1=C2C(=O)[C@H]3[C@@H](CC=C4C[C@@H](O)CC[C@@]43C)[C@@H]2CC[C@]12O[C@@H]1C[C@H](C)CN[C@H]1[C@H]2C | < 3.70 | < 5.61 and 3.99 | 
62 | CC(C)CC(NC(=O)OC(C)(C)C)C(=O)NC(CCC(=O)OCc1ccc([N+](=O)[O-])cc1)C(=O)OCc1ccc([N+](=O)[O-])cc1 (stereo not drawn) (Boc-Leu-Glu(ONb)-ONb; configuration not given here) | < 3.70 | 4.97 | 
63 | COC1=C(OC)CCC(/C(C#N)=C/c2ccc(OC)c(OC)c2)=C1 | < 4.38 | 4.67 | 
64 | CNc1ccc(/C=C2\C=Cc3ccccc32)cc1Br | < 4.92 | < 4.92 | 
